Structures are written as SMILES. ± gives the expanded uncertainty stated by the source.

The results in this text go back to the NIST ThermoML archive (doi:10.1016/j.jct.2012.11.027).

The conditions of data set [1]: 101 kPa, Liquid, Linear variable-path acoustic interferometer.
The nature of data set [2]: xn = mol fraction of the nth substance listed. The following applies: 101 kPa, Liquid, Linear variable-path acoustic interferometer, x2 = 0.

One may read the speed of sound as the propagation velocity of pressure waves in the medium. For `CCCCO` [butan-1-ol], the speed of sound in data set [1] (288.15 K) was found to be 1282.2 ± 1.9 m/s; in data set [1] (293.15 K) it was 1262.4 ± 1.9 m/s; in data set [1] (298.15 K), 1242.6 ± 1.8 m/s; in data set [1] (303.15 K), 1225.8 ± 1.8 m/s; in data set [1] (308.15 K), 1207.6 ± 1.8 m/s; in data set [1] (313.15 K), 1189.2 ± 1.8 m/s. The speed of sound in data set [1] (318.15 K) is listed as 1170 ± 1.8 m/s.

Consider `CCCCO` [butan-1-ol] + C=CC(=O)OC, for which the speed of sound in data set [2] (288.15 K) was found to be 1282.2 ± 1.9 m/s; in data set [2] (293.15 K), 1262.4 ± 1.9 m/s; in data set [2] (298.15 K) it was 1242.6 ± 1.8 m/s; in data set [2] (303.15 K), 1225.8 ± 1.8 m/s; in data set [2] (308.15 K) it was 1207.6 ± 1.8 m/s; in data set [2] (313.15 K) it was 1189.2 ± 1.8 m/s. For the same molecule, the speed of sound in data set [2] (318.15 K) stood at 1170 ± 1.8 m/s.

Turning to `CCCCCCCCCCO` [decan-1-ol], the speed of sound stood at 1410.6 ± 2 m/s in data set [1] (288.15 K); 1393.6 ± 2 m/s in data set [1] (293.15 K); 1377.3 ± 2 m/s in data set [1] (298.15 K); 1359.8 ± 2 m/s in data set [1] (303.15 K); 1345.7 ± 2 m/s in data set [1] (308.15 K); 1326.7 ± 2 m/s in data set [1] (313.15 K). In addition, in data set [1] (318.15 K), the speed of sound was found to be 1312.1 ± 1.9 m/s.

On to `CCCCCCCCCCO` [decan-1-ol] + C=CC(=O)OC, for which the speed of sound in data set [2] (288.15 K) was found to be 1410.6 ± 2 m/s; in data set [2] (293.15 K) it was 1393.6 ± 2 m/s; in data set [2] (298.15 K) it was 1377.3 ± 2 m/s; in data set [2] (303.15 K), 1359.8 ± 2 m/s; in data set [2] (308.15 K), 1345.7 ± 2 m/s; in data set [2] (313.15 K) it was 1326.7 ± 2 m/s. Moreover, the speed of sound in data set [2] (318.15 K) came to 1312.1 ± 1.9 m/s.

In the case of `CCCCCCO` [hexan-1-ol], the speed of sound in data set [1] (288.15 K) is recorded as 1339.2 ± 1.9 m/s; in data set [1] (293.15 K), 1321.2 ± 1.9 m/s; in data set [1] (298.15 K), 1306.9 ± 1.9 m/s; in data set [1] (303.15 K), 1289.5 ± 1.9 m/s; in data set [1] (308.15 K), 1275.7 ± 1.9 m/s; in data set [1] (313.15 K), 1256.3 ± 1.9 m/s. In data set [1] (318.15 K), the speed of sound turned out to be 1237.5 ± 1.8 m/s.

As for `CCCCCCO` [hexan-1-ol] + C=CC(=O)OC, the speed of sound in data set [2] (288.15 K) was found to be 1339.2 ± 1.9 m/s; in data set [2] (293.15 K), 1321.2 ± 1.9 m/s; in data set [2] (298.15 K), 1306.9 ± 1.9 m/s; in data set [2] (303.15 K) it was 1289.5 ± 1.9 m/s; in data set [2] (308.15 K), 1275.7 ± 1.9 m/s; in data set [2] (313.15 K), 1256.3 ± 1.9 m/s. Further, the speed of sound in data set [2] (318.15 K) is listed as 1237.5 ± 1.8 m/s.

Take `C=CC(=O)OC` [methyl propenoate]: the speed of sound in data set [1] (288.15 K) was 1226.6 ± 1.8 m/s; in data set [1] (293.15 K), 1204.6 ± 1.8 m/s; in data set [1] (298.15 K), 1183.6 ± 1.8 m/s; in data set [1] (303.15 K) it was 1162.2 ± 1.7 m/s; in data set [1] (308.15 K), 1139.1 ± 1.7 m/s; in data set [1] (313.15 K), 1117.8 ± 1.7 m/s. In data set [1] (318.15 K), the speed of sound was 1095.7 ± 1.7 m/s.

Regarding `CCCCCCCCO` [octan-1-ol], the speed of sound in data set [1] (288.15 K) is 1390.2 ± 2 m/s; in data set [1] (293.15 K), 1371.5 ± 2 m/s; in data set [1] (298.15 K), 1352.4 ± 2 m/s; in data set [1] (303.15 K) it was 1333.1 ± 2 m/s; in data set [1] (308.15 K), 1315.7 ± 2 m/s; in data set [1] (313.15 K), 1298.9 ± 1.9 m/s. Moreover, in data set [1] (318.15 K), the speed of sound amounted to 1282.9 ± 1.9 m/s.

In the case of `CCCCCCCCO` [octan-1-ol] + C=CC(=O)OC, the speed of sound in data set [2] (288.15 K) stood at 1390.2 ± 2 m/s; in data set [2] (293.15 K), 1371.5 ± 2 m/s; in data set [2] (298.15 K), 1352.4 ± 2 m/s; in data set [2] (303.15 K), 1333.1 ± 2 m/s; in data set [2] (308.15 K), 1315.7 ± 2 m/s; in data set [2] (313.15 K), 1298.9 ± 1.9 m/s. Further, the speed of sound in data set [2] (318.15 K) was 1282.9 ± 1.9 m/s.
